Experimental data from a melting point compilation (Tetko et al.; mined from patent text by program, amines drawn as free bases though some values may be those of a salt).

| Structure (SMILES) | melting point [°C] |
| --- | --- |
| COc1ccc2c(c1)/C(=C\CNC(=O)NC(C)(C)C)C(C)(C)CC2 | 175 to 176 |
| CCOC1=NN(C)C(=O)C1 | 79 to 80 |
| CCc1nc2c(cnn2CC)c(NC2CCOCC2)c1CNC(=O)c1cccc(C(=O)NCc2ccc(OC)c(Br)c2)c1 | 130 to 132 |
| COc1ccc(CN(C)CCc2ccc(NC(=O)c3cccc(C(=O)c4ccccc4)c3)cc2)cc1OC | 130 |
| Cn1nc(-c2cc(C(=O)O)c(Cl)cc2F)c(Cl)c1OC(F)F | 137 to 140 |
| COC(=O)c1ccc(-c2ccc(-c3ccccc3)c(-c3ccc4c(c3)SCCC4(C)C)c2)cc1 | 172 |
| Clc1nccnc1Oc1ccc(Oc2ccccc2)cc1 | 53 to 55 |
| CO/C=C(/C(=O)OC)c1ccccc1C=CCO | 78 to 80 |
| CCN(CC)CCNC(=O)c1cc(Cl)c(N)cc1OCCCCSC | 101 to 103 |
| O=C(O)C1CCCN1S(=O)(=O)c1ccc(-c2ccccc2)cc1 (stereo not given) | 133 to 135 |
| CC1C(=O)N(CC(N)=O)c2cc(Br)ccc21 (stereo not given) | 102 to 104 |
| C#CCNC(=O)c1ncn2c1[C@@H]1CCN1C(=O)c1ccccc1-2 | 214 to 215 |
| O=C(NCl)c1cccc(C(=O)NCl)c1 | 73.5 to 75 |
| CCn1ncnc1COc1nn2c(-c3cc(F)ccc3F)nncc2c1C(C)(C)C | 108 |
| O=C(Nc1nccs1)c1c(C(F)(F)F)nc(-c2ccccc2)c(-c2ccccc2)c1O | 256 |
| CCCC1=C(C#N)C(c2ccccc2Cl)c2c(n[nH]c2C2CC2)N1 (stereo not given) | 270 |
| CCc1cc2c(ccc(=O)n2Cc2ccc(C(=O)O)cc2)c(CC)n1 | 143 to 146 |
| COc1ccc2c(c1)C13CCN(C)C(C2)C1C(C)C(C)C(=O)C3 (stereo not given) | 101 to 102 |
| C=C=COc1ccccc1S(N)(=O)=O | 94 to 95 |
| CCCCCCCCOc1ccc(C(=O)Oc2cc(Cl)c(Cl)cc2Cl)cc1 | 53 |
| O=C1CCN(C(=O)c2cc(-c3ccccc3)c(=O)n3c2-c2sccc2CC3)CC1 | 218 to 220 |
| COC(=O)c1ccc2c3cccc4cccc(c5ccc(C(=O)N(C)c6ccc(C(C)(C)C)cc6)c1c25)c43 | 272 |
| CN(C)Cc1c[nH]c2ccc(Cl)cc12 | 127 to 130 |
| CC(=O)c1cccc(S(=O)(=O)C[N+](=O)[O-])c1 | 99 to 100 |

| Structure (SMILES) | melting point [°C] |
| --- | --- |
| O=c1ccccn1[C@@H]1c2cc(C(F)(F)F)ccc2OC(CF)(CF)[C@H]1O (relative stereo) | 210 to 212 |
| CN1C(=O)C(c2ccc(OC(F)F)cc2)(c2cccc(C3CC(=O)C3(C)C)c2)N=C1N (stereo not given) | 172 to 174 |
| CN(C)C1(C(=O)c2cc3ccccc3n2C)CCC(c2ccccc2)(N(C)C)CC1 (stereo not given) | 109 to 111 |
| CC(=O)Nc1ncsc1C | 62 to 64 |
| Cc1ccc(C)c2c1OCc1ccccc1C2C(=O)Nc1c(C(C)C)cccc1C(C)C (stereo not given) | 149 to 150 |
| O=C(O)CCCCCc1cccnc1 | 100 to 105 |
| CN1CCN(c2nc(-c3ccccc3)c(-c3ccnc(S(C)=O)n3)s2)CC1 (stereo not given) | 166 to 169 |
| O=C1NC(=O)C(N(Cc2ccc(Br)cc2)c2ccc(CCNCC(O)COc3ccccc3)cc2)S1 (stereo not given) | 52 to 54 |
| CCOC(Nc1ccc(C(=O)O)cc1)C(=O)c1ccc(Oc2ccc(Cl)c3ccccc23)cc1 (stereo not given) | 155 to 165 |
| CCOC(C)=C1SC(=S)N(c2ccc(Cl)cc2)C1=O | 168 to 171 |
| CCCc1nc2c(N)nc(C)c(C)c2n1CCCS(=O)(=O)c1ccc(C(=O)OCC)cc1 | 169 to 171 |
| CCOc1ccc(Nc2nc(Nc3ccc4c(c3)OCCO4)ncc2F)cc1 | 164 to 167 |
| COc1cc2c(-c3ccc(Cl)cc3)csc2c(Cl)c1Cl | 190 to 191 |
| Cc1cc(C)cc(CC(=O)Nc2[nH]c(=O)[nH]c(=O)c2C(C)C)c1 | 126 to 127 |
| O=C(O)c1ccccc1COC1CCn2c(CCc3ccccc3)nc3cccc1c32 (stereo not given) | 154 to 155 |
| CCC/C=C/c1ccc(C#CC(C)(C)O)cc1 | 65 |
| CS(=O)(=O)Nc1cc2c(cc1Oc1ccccc1)CCO2 | 133 |
| COc1ccc(O)c2[nH]c(C)c(C)c12 | 159 |
| CCOC(=O)c1cc2c(cn1)[nH]c1ccc(N)c(N3CCCCC3)c12 | 188 to 190 |
| COC(=O)C1(NC(=O)OCc2ccccc2)CCC(=O)O1 (stereo not given) | 134 |
| Cc1ccc(Cc2cnc(NCCCN(Cc3ccccc3)c3ccccn3)[nH]c2=O)cn1 | 90 to 96 |
| O=C(Nc1ccc2[nH]ccc2c1)C(=O)N1CCC(Cc2ccc(F)cc2)CC1 | 80 to 82 |
| O=C(C(=O)N(CCN1CCOCC1)S(=O)(=O)C(F)(F)F)N(CCN1CCOCC1)S(=O)(=O)C(F)(F)F | 62 to 64 |
| Nc1cc(-n2cc(C(=O)O)c(=O)c3cc(F)c(F)c(Cl)c32)c(F)cc1F | 225 to 226 |

Now from value to compound:

| melting point [°C] | Structure (SMILES) |
| --- | --- |
| 144 | Cc1cc(C)cc(NCc2ccc3nc(NC4CCN(CCO)CC4)n(Cc4nc(C)ccc4O)c3c2)c1 |
| 248 to 249 | CCn1cc(C(=O)O)c(=O)c2cc(F)c(N3CCN(C)C(c4cc5cc(Cl)ccc5o4)C3)cc21 (stereo not given) |
| 77 to 77.5 | Clc1ccc(-c2cnccn2)cc1 |
| 76 to 78 | CCCCCNC(=O)n1nc(Oc2ncc(C(F)(F)F)cc2Cl)c(Cl)c1C |
| 210 to 213 | CCOC(=O)c1cn(-c2nc(NC(C)(C)C)c(F)cc2Cl)c2c(Cl)c(F)c(F)cc2c1=O |
| 204 to 205 | Nc1nc(SCCC(=O)c2ccccc2)c2[nH]cnc2n1 |
| 84 | COC(=O)C(=O)NCCc1ccc(OCc2ccccc2)c(OCc2ccccc2)c1 |
| 134 to 135 | COc1cccc(NC(=N)Nc2cccc(OC)c2)c1 |
| 181 to 182 | COc1ccc(CN2C(=O)[C@@H](NC(=O)Cc3ccccc3)[C@H]2CI)c(OC)c1 (relative stereo) |
| 45 | CCOC(=O)C(C)(C)Oc1ccc(C(=O)c2cccs2)cc1 |
| 89 to 91 | COc1cccc(/C(=C\C=C\C(=O)NCCCCc2cccnc2)c2ccccc2)c1 |
| 262 to 264 | Cc1cc2c(-c3ccc(Br)cc3)c(CC(=O)Nc3ccc(F)cc3C(F)(F)F)c(=O)oc2cc1Cl |
| 145 | Cc1nnc(NC(C)C)s1 |
| 166 to 168 | Cn1c(Cl)c(C=O)c2ccc(Cl)cc21 |
| 117 to 120 | CC(C)(C)OC(=O)N(c1ccccc1)S(=O)(=O)c1ccc2c(c1)CCC(C)(C)O2 |
| 219 to 220 | Cn1c(=O)[nH]c2ccc(-c3cccc(Cl)c3)cc21 |
| 63 to 65 | C#CCCOc1cc(C=O)ccc1OC |
| > 250 | CC(=O)Nc1ccc([N+](=O)[O-])cc1O |
| 113 to 115 | O=C(O)c1cc(Cl)ccc1OCc1ccccc1 |
| 179 to 181 | CCCCc1oc2ccccc2c1C(=O)Nc1ccc2c(Br)c(OCC(=O)OC)ccc2c1 |
| 219 to 221 | CC(C)(C)c1ncn(Sc2ncc([N+](=O)[O-])s2)n1 |
| 134 | O=C(NC1CC1)c1ccc(F)c2c1CC(N(CCCc1c[nH]c3ccc(F)cc13)C1CCC1)CO2 (stereo not given) |
| 130 to 132 | C[C@@H](n1cnc2cc(NC(=O)C(F)(F)F)c(F)cc2c1=O)[C@](O)(Cn1cncn1)c1ccc(F)cc1F |
| 148 to 149 | CC(=O)Nc1cccc2cccc(N=[N+]=[N-])c12 |
| 190 | O=[N+]([O-])c1cc2cc(Cl)ccc2nc1Cl |
| 264 to 266 | CC(C)c1cccc(C(C)C)c1NC(=O)NC1CCC(C(C)(C)C)CC1 (stereo not given) |

| melting point [°C] | Structure (SMILES) |
| --- | --- |
| 246 | O=c1c2c(O)c(O)ccc2c2cc(O)c(O)cc2n1Cc1ccc(Cl)c(Cl)c1 |
| 226 to 228 | Nc1ccc(-c2nc3cc(N)ccc3o2)cc1 |
| 224 | N#Cc1cc(NC(=O)c2ccn(-c3ccc(Cl)cc3)c2)ccc1N1CCN(C2CCOCC2)CC1 |
| 65 | CCOC(=O)C(C)(C)Oc1ccc(OCc2ccccc2)cc1C=O |
| 108 to 109 | CCOc1cc(F)ccc1N1CCN(Cc2ccc(CNC(C)=O)cc2)CC1 |
| 184 to 185 | COC(=O)c1cc(C#N)ccc1NC(=O)c1cccc(S(=O)(=O)N2CCOCC2)c1 |
| 98 to 100 | Cc1sc(-c2nccs2)c2c1C(=O)CC(C)(C)C2 |
| 115 | CSc1c(N)nc(N2CCOCC2)nc1Cl |
| 145 to 146 | C=C1N(C2CCCCC2)C(=O)OC12CCN(CCC=C(c1ccc(F)cc1)c1ccc(F)cc1)CC2 |
| 152 to 153 | Cc1sc2ncc(C(O)CC(O)c3ccccc3)n2c1C (stereo not given) |
| 263 | COc1cccc(SSc2cccc(OC)c2S(N)(=O)=O)c1S(N)(=O)=O |
| 80 to 82 | CN1CC(CCN2CCN(c3ccccc3F)CC2)OC1=O (stereo not given) |
| 164 to 165 | CN(C)S(=O)(=O)c1ccc2c(c1)CC(N1CCN(CCN3CCOC3=O)CC1)c1ccccc1S2 (stereo not given) |
| 195 to 200 | Cc1cnc(C)n1CC(O)c1ccc(-c2ccc(N3C[C@H](Cn4ccnn4)OC3=O)cc2F)cn1 (stereo not given in full) |
| 177 | O=c1[nH]c2ccccc2n1CCN1CCC(Nc2nc3cccnc3n2CCOCCO)CC1 |
| 138 to 140 | CSC1=Nc2cccnc2Nc2cscc21 |
| 260 to 265 | CCC12CCC(=O)C=C1c1c(cc(O)c(Cl)c1Cl)C2 (stereo not given) |
| 157 to 158 | CCSc1c(O[C@H]2CC[C@H](N)CC2)ccc2[nH]ncc12 |
| 189 to 190 | COC(=O)C(=NO)c1nc2ccc(C)cc2oc1=O |
| 51 | CCOCCOc1ccc(CCNC(=O)/C=C/c2cccs2)cc1S(=O)(=O)NC(=S)NC |
| 300 | COc1cc2c(cc1O)CC1CN(C)Cc3c(O)c(OC)cc-2c31 (stereo not given) |
| 81 to 86 | Cc1cc2c(c(C(C)(C)C)c1)OC(=O)C2Cl (stereo not given) |
| 79 to 80 | O=[N+]([O-])c1cc(I)cc(OCc2ccccc2)c1 |
| 114 to 115 | COc1ccc(COCCC(C(=O)O)c2ccccc2)cc1 (stereo not given) |
| 174 to 178 | CC(=O)OCC1CCn2c(c(C3=C(c4cn(C)c5ccccc45)C(=O)OC3=O)c3ccccc32)C1 (stereo not given) |
| 153 to 154 | O=[N+]([O-])c1ccccc1COc1ccc2ncc3c(c2c1)CCCC3 |
